Data as given in PMC4258814, “Differences between murine arylamine N-acetyltransferase type 1 and human arylamine N-acetyltransferase type 2 defined by substrate specificity and inhibitor binding” (BMC Pharmacology & Toxicology, 2014).
Positions count from the first letter of the chain named. Marks after values point to notes of the source that are not given here. Values belong to the molecule of their own block, whether it stands above or below them.

Legend:
[1] = target: T1, (MOUSE)NAT1*1 (Mus musculus, UniProt P50294); assay: Substrate specific N-acetylation profile; format: biochemical; conditions: substrate 500 μM, relative to substrate with highest specific activity (100%), mean of 3 ± SD
T1 construct: The open reading frame of (MOUSE)Nat1*1 [32] was subcloned; hexa-His (N, cleaved yes); made in house; host or cells: Escherichia coli BL21(DE3)CodonPlus-RIL
T1 sequence (P50294 1-290): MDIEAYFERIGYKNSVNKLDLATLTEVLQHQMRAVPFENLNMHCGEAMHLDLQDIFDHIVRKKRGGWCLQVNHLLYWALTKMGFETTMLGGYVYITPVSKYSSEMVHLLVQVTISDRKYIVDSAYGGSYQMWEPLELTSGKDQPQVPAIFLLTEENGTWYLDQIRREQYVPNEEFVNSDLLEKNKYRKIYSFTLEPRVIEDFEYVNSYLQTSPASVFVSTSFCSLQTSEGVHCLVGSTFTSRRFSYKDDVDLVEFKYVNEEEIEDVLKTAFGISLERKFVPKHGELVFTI

[2] = target: T2, (HUMAN)NAT2*4 (Homo sapiens, UniProt P11245); parameters: method as in PMID 15627487, PMID 18280460; conditions: substrate 500 μM, relative to substrate with highest specific activity (100%), mean of 3 ± SD, ref [8], [22]; cited from earlier work
T2 construct: made in house
T2 sequence (P11245 1-290): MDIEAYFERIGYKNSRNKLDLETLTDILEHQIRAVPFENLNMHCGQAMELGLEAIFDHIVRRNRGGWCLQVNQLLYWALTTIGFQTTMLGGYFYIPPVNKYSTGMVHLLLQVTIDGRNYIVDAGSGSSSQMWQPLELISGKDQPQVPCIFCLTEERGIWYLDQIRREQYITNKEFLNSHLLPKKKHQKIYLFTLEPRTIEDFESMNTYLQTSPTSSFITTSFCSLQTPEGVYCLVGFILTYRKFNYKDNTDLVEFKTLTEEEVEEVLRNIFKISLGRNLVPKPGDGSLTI

[3] = ref [56]–[61]; cited from earlier work
[4] = tested on: (HUMAN)NAT1*4; parameters: method as in PMID 15627487, PMID 18280460; conditions: substrate 500 μM, relative to substrate with highest specific activity (100%), mean of 3 ± SD, ref [8], [22]; cited from earlier work
[5] = target: T3, (MOUSE)NAT2_R127G (Mus musculus, UniProt P50295, R127G); assay: Substrate specific N-acetylation profile; format: biochemical; conditions: (MOUSE)NAT2 R127G; substrate 500 μM; relative to substrate with highest specific activity (100%); mean of 3 ± SD
T3 construct: made in house
T3 sequence (P50295 1-290 R127G): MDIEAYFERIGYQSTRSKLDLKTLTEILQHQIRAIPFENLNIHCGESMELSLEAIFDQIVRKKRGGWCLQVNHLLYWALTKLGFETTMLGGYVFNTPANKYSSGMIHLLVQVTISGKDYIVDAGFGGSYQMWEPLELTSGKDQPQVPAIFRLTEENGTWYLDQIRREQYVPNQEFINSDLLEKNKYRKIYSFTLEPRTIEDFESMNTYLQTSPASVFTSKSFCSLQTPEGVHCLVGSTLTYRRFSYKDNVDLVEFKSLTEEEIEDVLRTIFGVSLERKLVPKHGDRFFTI

[6] = target: T4, (MOUSE)NAT2*1 (Mus musculus, UniProt P50295); assay: Substrate specific N-acetylation profile; format: biochemical; conditions: substrate 500 μM, relative to substrate with highest specific activity (100%), mean of 3 ± SD
T4 construct: made in house
T4 sequence (P50295 1-290): T3 sequence (P50295 1-290 R127G) with G127R

[7] = tested on: (MESAU)NAT2*1; parameters: method as in PMID 15627487, PMID 18280460; conditions: substrate 500 μM, relative to substrate with highest specific activity (100%), mean of 3 ± SD, ref [8], [22]; cited from earlier work
[8] = target: T5, (MOUSE)NAT2_R127L (Mus musculus, UniProt P50295, R127L); assay: Substrate specific N-acetylation profile; format: biochemical; conditions: (MOUSE)NAT2 R127L; substrate 500 μM; relative to substrate with highest specific activity (100%); mean of 3 ± SD
T5 construct: made in house
T5 sequence (P50295 1-290 R127L): T3 sequence (P50295 1-290 R127G) with G127L

[9] = target: T6, (MOUSE)NAT2_F125S (Mus musculus, UniProt P50295, F125S); assay: Substrate specific N-acetylation profile; format: biochemical; conditions: (MOUSE)NAT2 F125S; substrate 500 μM; relative to substrate with highest specific activity (100%); mean of 3 ± SD
T6 construct: His tag (only implied by Ni-NTA purification) (cleaved yes); made in house; host or cells: E. coli Rosetta(DE3)pLysS
T6 sequence (P50295 1-290 F125S): T3 sequence (P50295 1-290 R127G) with F125S, G127R

[10] = target: T4, (MOUSE)NAT2*1; parameters: method as in PMID 23940600, PMID 20170182; conditions: read-out: IC50 with naphthoquinone 1, AcCoA 400 μM, substrate 4ABA, ref [25], [24]; cited from earlier work
[11] = target: T4, (MOUSE)NAT2*1; parameters: method as in PMID 23940600, PMID 20170182; conditions: in presence of (MOUSE)NAT2*1; ref [25], [24]; cited from earlier work
[12] = tested on: (MESAU)NAT2*1; parameters: method as in PMID 24758871; conditions: read-out: IC50 with naphthoquinone 1, AcCoA 400 μM, substrate 4ABA, ref [26]; cited from earlier work
[13] = tested on: (HUMAN)NAT1*4; parameters: method as in PMID 23940600; conditions: read-out: IC50 with naphthoquinone 1, AcCoA 400 μM, substrate 4ABA, ref [25]; cited from earlier work
[14] = target: T5, (MOUSE)NAT2_R127L; parameters: method as in PMID 23940600; conditions: in presence of (MOUSE)NAT2_R127L; ref [25]; cited from earlier work
[15] = target: T2, (HUMAN)NAT2*4; parameters: method as in PMID 23940600; conditions: in presence of (HUMAN)NAT2*4; ref [25]; cited from earlier work
[16] = target: T6, (MOUSE)NAT2_F125S; assay: Inhibition of NAT activity (AcCoA hydrolysis rate); format: biochemical; conditions: AcCoA 400 μM, substrate 5AS, 5% DMSO
Excerpt: (§1) The final concentration of dimethyl sulphoxide (DMSO) in reaction mixes was 5% (v/v). IC50 values were estimated using a dose–response-based regression model in Kyplot® software. Curves were fitted by least squares analysis with confidence limits of 95%.

[17] = target: T2, (HUMAN)NAT2*4; assay: Inhibition of NAT activity (AcCoA hydrolysis rate); format: biochemical; conditions: AcCoA 400 μM, substrate 2-aminofluorene, 5% DMSO
Excerpt: as §1

[18] = target: T1, (MOUSE)NAT1*1; assay: Inhibition of NAT activity (AcCoA hydrolysis rate); format: biochemical; conditions: AcCoA 400 μM, substrate 5AS, 5% DMSO
Excerpt: as §1

[19] = target: T3, (MOUSE)NAT2_R127G; parameters: method as in PMID 23940600; conditions: in presence of (MOUSE)NAT2_R127G; ref [25]; cited from earlier work
[20] = target: T1, (MOUSE)NAT1*1; parameters: method as in PMID 20170182; conditions: in presence of (MOUSE)NAT1*1; ref [24]; cited from earlier work

% specific activity values [1]: 88 ± 6% | % specific activity values [5]: 19 ± 2% | % specific activity values [6]: 4 ± 1% | % specific activity values [8]: 3 ± 1% | % specific activity values [9]: 1 ± 1%
Compound: Cc1cc(C)nc(NS(=O)(=O)c2ccc(N)cc2)n1 [SMZ, sulfamethazine]
% specific activity values [2]: 46 ± 1% | pKa(H) (NH3^+) [3]: 2.4 | pKa(H) (sulfonamide) [3]: 7.4 | % specific activity values [4]: 1 ± 1% | % specific activity values [7]: 1 ± 1%

IC50 [16]: 68.7 µM | IC50 [17]: > 100 µM | IC50 [18]: 130 µM
Compound: Cc1cc(C)cc(NC2=C(NS(=O)(=O)c3ccccc3)C(=O)c3ccccc3C2=O)c1 [naphthoquinone 1, N-(3-(3,5-dimethylphenylamino)-1,4-dioxo-1,4-dihydronaphthalen-2-yl)benzenesulphonamide]
IC50 [10]: 1.3 µM | λ max of naphthoquinone 1 [11]: 625^a,b nm | IC50 [12]: 89 µM | IC50 [13]: 5.3 µM | λ max of naphthoquinone 1 [14]: 498^a nm | λ max of naphthoquinone 1 [15]: 498^a nm | λ max of naphthoquinone 1 [19]: 498^a nm | λ max of naphthoquinone 1 [20]: 498^b nm
